The results in this text go back to patent US20170119806A1, “[…] LACTONE DERIVATIVES AND METHODS OF MAKING AND USING THEREOF” (OHIO STATE INNOVATION FOUNDATION, priority 2014, published 2017).

“Also recorded” adds a separate entry of the source.

Data set [1] has as its target topo IIα (Homo sapiens, UniProt P11388). Description: Topoisomerase II assay (DNA cleavage/relaxation). The format is biochemical. Conditions: 100 μM test compound. The text has this:
The formation of linear DNA was detected by separating the SDS-treated reaction products using ethidium bromide gel electrophoresis and quantified by accounting for the relationship between fluorescence and relative band intensity for open circular (OC), linear (LNR), supercoiled (SC), and relaxed (RLX) configurations of DNA.
Topoisomerase II Assay. […] The formation of linear DNA was detected by separating the SDS-treated reaction products using ethidium bromide gel electrophoresis by a modification of a previously described procedure (Hasinoff B B et al. Mol. Pharmacol. 2005, 67, 937-947). In this system, topo II-mediated catalytic conversion of supercoiled pBR322 DNA to the “relaxed” form of plasmic' DNA can also be observed. A 20 μL cleavage assay reaction mixture contained 250 ng topo IIα protein, 160 ng pBR322 plasmid DNA (NEB, Ipswich, Mass.), 1.0 mM ATP in assay buffer (10 mM Tris-HCl (pH 7.5), 50 mM KCl, 50 mM NaCl, 0.1 mM EDTA, 5 mM MgCl2, 2.5% glycerol), and 100 μM of test compounds or DMSO solvent, as indicated. Assay buffer (17 μL) and test compound/DMSO (1 μL) were mixed and allowed to sit at room temperature for 30 min after which 2 μL of topo IIα was added to initiate the reaction. Tubes were incubated at 37° C. for 15 min, and then quenched with 1% (v/v) SDS/10 mM disodium EDTA/200 mM NaCl. The mixture was treated subsequently with 0.77 mg/mL proteinase K (Sigma) at 55° C. for 60 min to digest the protein, and DNA bands were separated by electrophoresis (18 h at 2 V/cm) on an agarose gel (1.3% w/v) containing 0.7 μg/mL ethidium bromide in TAE buffer pH 8.0 (40 mM Tris base, 0.114% (v/v) glacial acetic acid, 2 mM EDTA). The DNA in the gel was imaged by its fluorescence on a Chemi-Doc XRS+ imager (Bio-Rad, Hercules, Calif.). Linear DNA was quantified by accounting for the relationship between fluorescence and relative band intensity for open circular (QC), linear (LNR), supercoiled (SC), and RLX (relaxed) configurations of DNA (Projan S J et al. Plasmid 1983, 9, 182-190), then calculating % of LNR from the total DNA content in each lane.

The nature of data set [2]: Solubility in aqueous solutions. The class given is physicochemical.
The subject of data set [3] is HT-29 human colon cancer cells. Description: Cytotoxicity against HT-29 cells.
Procedure: The cytotoxicity of the test compounds was screened against HT-29 cells by a previously reported procedure (Ren Y et al. J. Nat. Prod 2011, 74, 1117-1125). Paclitaxel and etoposide were used as positive controls.
All arylnaphthalene lignans isolated from P. poilanet in the present study and their semi-synthetic analogues were evaluated for their cytotoxicity against HT-29 human colon cancer cells, using paclitaxel as the positive control (Table 6) (Ren Y et al. J. Nat. Prod 2011, 74, 1117-1125).
Data set [4] has as its system human primary NK cells. Put plainly: IFN-γ production by NK cells (intracellular flow cytometry, ELISA). The class given is cell-based. Conditions: 10 μM TPCK, 10 μM PL-C and IL-12, 18 h. As for the experimental part:
(A) Chemical structure of PL-C (phyllanthusmin C, 4), (9) Healthy donor PBMCs (left panel) or enriched NK cells (right panel) were treated with DMSO vehicle control or 10 μM PL-C for 18 h in the presence of […] (10 ng/mL) or IL-15 (100 ng/mL). The cells were harvested and analyzed by intracellular flow cytometry to determine the frequency of IFN-γ^+ cells in CD56^+CD3^− NK cells (n=8 for PBMC and n=5 for enriched NK). (C) Highly purified (≧99.5%) human primary NK cells were treated with 10 μM PL-C for 18 h to determine the levels of IFN-γ secretion by ELISA. IFN-γ secretion from treatment with PL-C alone (left panel) or in combination with IL-12 (10 ng/mL, middle panel) or IL-15 (100 ng/mL, right panel) is shown. (D) Cells were treated as described in (C) and harvested at 12 h, IFNG mRNA expression was assessed by real-time RT-PCR, and the relative IFNG mRNA expression of each treatment was normalized to untreated vehicle control in the same donor. Data are shown as mean±SEM (n=6 in each treatment; error bars represent SEM). *p<0.05, **p<0.01, which denote statistical comparison between the two marked treatment groups (B-D). (E) Highly purified (≧99,5%) primary human NK cells were treated with 10 μM. PL-C in combination with various concentrations of IL-12 (10, 1, and 0.1 ng/mL) or IL-15 (100, 10, and 1 ng/mL) for 24 h to determine the levels of IFN-γ secretion. Representative data from one of three donors with the similar data are shown. *p<0.05, **p<0.01, which denote statistical comparison between the two marked treatment groups and are calculated from data of all tested donors. Error bars represent SD. […]
Isolation of PBMCs and NK cells. […] The purity of enriched NK cells was ≧80% assessed by flow cytometric analysis after staining with CD56-allophycocyanin and CD3-FITC Abs (BD Bio-sciences, San Jose, Calif.). […] The purity of magnetic bead-purified NK cells was ≧99.5%, as determined by the aforementioned flow cytometric analysis. […]
(Flow cytometry measures light scatter and fluorescence of single cells or particles in a stream.)

The test system of data set [5] is NF-κB p65. Description: Immunoblotting of p65 and p-p65 in NK cells. The format is cell-based, human. Conditions: 10 μM TPCK, 10 μM PL-C and IL-12, 18 h. How it is done: (A) Purified primary human NK cells were treated with 5 and 10 μM PL-C for 18 h. The cells were harvested and lysed for immunoblotting using p65 and p-p65 Abs. β-Actin immunoblotting was included as the internal control. Data shown are for treatment with PL-C alone (top panel) or in combination with IL-12 (10 ng/mL) (middle panel) or IL-15 (100 ng/mL) (bottom panel) and are the representative plots of four donors with similar results. Numbers under each lane represent quantification of p-p65 or p65 via densitometry, after normalizing to β-actin. (B) NKL cells were treated, and data are presented as described in (A). Data from one of three independent experiments with similar results are shown. (C) Purified primary human NK (left panel) or NKL cells (right panel) were cotreated with 10 μM PL-C and IL-12 (10 ng/mL) in the presence or absence of the NF-κB inhibitor TPCK (10 μM) for 18 h. Supernatants were assayed for IFN-γ secretion by ELISA (top panel), and cells were harvested and lysed for immunoblotting of p-p65 (bottom panel). Representative data from one of three donors with the similar data (left panel) and the summary of three independent experiments with similar results (right panel) are shown. **p<0.01. Error bars represent SD.
Immunoblotting. Immunoblotting was performed as described previously (Yu J et al. Immunity 2006, 24, 575-590; Yu J et al. Blood 2010, 115, 274-281). […]
Background: A western blot detects proteins with antibodies after separation by electrophoresis.

Sequence of topo IIα (P11388 whole entry): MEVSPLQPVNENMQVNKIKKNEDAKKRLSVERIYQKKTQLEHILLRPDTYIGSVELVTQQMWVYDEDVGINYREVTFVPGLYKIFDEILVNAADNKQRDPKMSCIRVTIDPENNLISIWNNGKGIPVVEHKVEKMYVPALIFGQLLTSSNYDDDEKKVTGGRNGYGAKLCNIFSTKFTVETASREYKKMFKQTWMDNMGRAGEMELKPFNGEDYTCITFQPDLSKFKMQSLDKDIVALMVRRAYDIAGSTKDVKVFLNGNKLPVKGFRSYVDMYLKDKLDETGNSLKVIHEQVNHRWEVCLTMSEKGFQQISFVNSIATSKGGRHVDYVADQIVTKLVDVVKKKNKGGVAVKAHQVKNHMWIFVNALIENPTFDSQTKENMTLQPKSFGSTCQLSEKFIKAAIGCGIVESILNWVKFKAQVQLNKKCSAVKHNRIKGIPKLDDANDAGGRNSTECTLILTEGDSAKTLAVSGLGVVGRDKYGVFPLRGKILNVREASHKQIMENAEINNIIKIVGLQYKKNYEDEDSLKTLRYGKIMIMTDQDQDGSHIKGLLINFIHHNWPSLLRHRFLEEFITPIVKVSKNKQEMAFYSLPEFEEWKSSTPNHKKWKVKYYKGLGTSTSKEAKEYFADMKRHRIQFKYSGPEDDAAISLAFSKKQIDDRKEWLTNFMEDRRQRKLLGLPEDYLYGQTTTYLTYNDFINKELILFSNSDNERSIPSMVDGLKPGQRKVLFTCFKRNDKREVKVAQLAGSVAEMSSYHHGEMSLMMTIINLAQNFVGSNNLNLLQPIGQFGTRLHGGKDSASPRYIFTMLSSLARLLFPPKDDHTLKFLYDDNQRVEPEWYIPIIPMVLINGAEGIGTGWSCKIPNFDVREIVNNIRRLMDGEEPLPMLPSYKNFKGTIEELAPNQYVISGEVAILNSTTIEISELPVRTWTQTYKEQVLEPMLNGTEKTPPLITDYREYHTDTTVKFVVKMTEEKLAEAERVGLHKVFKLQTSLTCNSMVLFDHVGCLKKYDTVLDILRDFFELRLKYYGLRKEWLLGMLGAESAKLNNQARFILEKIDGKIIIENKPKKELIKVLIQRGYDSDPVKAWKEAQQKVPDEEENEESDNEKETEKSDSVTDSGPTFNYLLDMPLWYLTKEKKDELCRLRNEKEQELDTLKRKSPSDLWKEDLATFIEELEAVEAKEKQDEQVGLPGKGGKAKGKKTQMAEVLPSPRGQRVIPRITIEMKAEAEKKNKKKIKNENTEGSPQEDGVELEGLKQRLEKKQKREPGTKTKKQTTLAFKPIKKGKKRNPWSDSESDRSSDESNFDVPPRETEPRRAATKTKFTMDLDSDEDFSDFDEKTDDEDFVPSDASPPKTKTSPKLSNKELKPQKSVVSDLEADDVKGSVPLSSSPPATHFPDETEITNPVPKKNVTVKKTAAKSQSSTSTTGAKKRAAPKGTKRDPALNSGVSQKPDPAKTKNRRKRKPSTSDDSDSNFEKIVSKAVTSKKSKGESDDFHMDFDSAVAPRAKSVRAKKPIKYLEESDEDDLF

On to `COc1cc2c(O[C@@H]3OC[C@H](OC(C)=O)[C@H](OC(C)=O)[C@H]3OC(C)=O)c3c(c(-c4ccc5c(c4)OCO5)c2cc1OC)C(=O)OC3` [Compound 7, 7-O-((2,3,4-tri-O-acetyl)-α-L-arabinopyranosyl) diphyllin], for which, in data set [1], the “topo IIα inhibition (in words)” value is given as “not topo Ha inhibitors; also recorded: not topo IIα inhibitors”. In addition, in data set [2], the “solubility in aqueous solutions” value is “insoluble in aqueous solutions”. Moreover, in data set [3] (read-out: ED50, toxicity towards HT-29 cells, natural samples), the EC50 was determined as 0.11 µM. In data set [3] (read-out: IC50, cytotoxicity toward HT-29 cells), the IC50 (as a rule, the concentration that gives 50% inhibition) stood at 0.11 µM.
As for “N-tosyl-L-phenylalanine chloromethyl ketone [TPCK, reference compound]”, the “effect on PL-C-induced IFN-γ secretion” value in data set [4] is “inhibition of PL-C-induced IFN-γ secretion”. Besides, in data set [5], the “effect on PL-C-induced p65 phosphorylation” value is “inhibited PL-C-induced p65 phosphorylation”.
